From ChEMBL document CHEMBL4507281, “Data for DCP probe BI-4394” (2021)

How the values were obtained:
[1] = biological target: Cyclin-dependent kinase 9 (Homo sapiens) (UniProt P50750); conditions: Compound concentration 100.0 nM
[2] = biological target: Dual specificity tyrosine-phosphorylation-regulated kinase 1A (Homo sapiens) (UniProt Q13627); conditions: Compound concentration 100.0 nM
[3] = biological target: Calcium-dependent protein kinase 1 (Plasmodium falciparum) (UniProt P62344); conditions: Compound concentration 100.0 nM
[4] = biological target: Casein kinase I isoform delta (Homo sapiens) (UniProt P48730); conditions: Compound concentration 100.0 nM
[5] = biological target: 3-phosphoinositide-dependent protein kinase 1 (Homo sapiens) (UniProt O15530); conditions: Compound concentration 100.0 nM
[6] = biological target: Myosin light chain kinase 2, skeletal/cardiac muscle (Homo sapiens) (UniProt Q9H1R3); conditions: Compound concentration 100.0 nM
[7] = biological target: Delta-type opioid receptor (Homo sapiens) (UniProt P41143); conditions: Compound concentration 10.0 uM
[8] = biological target: Mitogen-activated protein kinase 10 (Homo sapiens) (UniProt P53779); conditions: Compound concentration 100.0 nM
[9] = tested on: Tyrosine-protein kinase ABL1 (Homo sapiens), P00519 [F317I]; conditions: Compound concentration 100.0 nM
[10] = biological target: Atypical kinase COQ8A, mitochondrial (Homo sapiens) (UniProt Q8NI60); conditions: Compound concentration 100.0 nM
[11] = biological target: T1, Tyrosine-protein kinase JAK3 (Homo sapiens) (UniProt P52333); conditions: Compound concentration 100.0 nM
T1 sequence (whole entry): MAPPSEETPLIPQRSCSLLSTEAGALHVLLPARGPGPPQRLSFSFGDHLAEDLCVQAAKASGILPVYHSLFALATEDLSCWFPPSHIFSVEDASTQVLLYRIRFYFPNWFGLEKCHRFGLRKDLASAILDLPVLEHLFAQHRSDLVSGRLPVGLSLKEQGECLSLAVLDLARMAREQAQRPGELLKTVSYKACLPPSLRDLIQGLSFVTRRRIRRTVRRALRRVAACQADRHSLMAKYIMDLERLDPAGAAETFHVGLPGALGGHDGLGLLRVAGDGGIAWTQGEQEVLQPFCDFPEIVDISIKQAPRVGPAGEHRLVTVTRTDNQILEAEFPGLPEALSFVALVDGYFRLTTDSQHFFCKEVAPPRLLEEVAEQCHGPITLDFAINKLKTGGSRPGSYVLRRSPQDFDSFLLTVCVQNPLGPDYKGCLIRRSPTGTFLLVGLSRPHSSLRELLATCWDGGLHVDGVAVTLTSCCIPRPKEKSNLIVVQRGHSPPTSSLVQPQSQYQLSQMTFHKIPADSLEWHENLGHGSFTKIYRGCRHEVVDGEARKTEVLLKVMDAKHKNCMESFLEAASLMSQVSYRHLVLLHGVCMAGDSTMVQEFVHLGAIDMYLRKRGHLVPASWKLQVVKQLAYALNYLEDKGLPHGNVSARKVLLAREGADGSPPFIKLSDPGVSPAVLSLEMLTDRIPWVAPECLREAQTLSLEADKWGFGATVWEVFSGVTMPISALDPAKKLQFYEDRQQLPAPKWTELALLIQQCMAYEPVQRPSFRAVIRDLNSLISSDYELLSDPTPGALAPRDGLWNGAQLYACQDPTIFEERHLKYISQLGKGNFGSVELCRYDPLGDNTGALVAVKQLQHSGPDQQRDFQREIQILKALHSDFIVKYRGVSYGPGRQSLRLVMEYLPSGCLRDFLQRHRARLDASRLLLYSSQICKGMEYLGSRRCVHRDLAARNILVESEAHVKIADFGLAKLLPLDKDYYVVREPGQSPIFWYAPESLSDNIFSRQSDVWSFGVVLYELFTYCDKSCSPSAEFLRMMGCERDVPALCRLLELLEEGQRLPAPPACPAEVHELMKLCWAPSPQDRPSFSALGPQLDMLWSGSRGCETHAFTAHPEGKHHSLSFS

[12] = biological target: Mast/stem cell growth factor receptor Kit (Homo sapiens) (UniProt P10721); conditions: Compound concentration 100.0 nM
[13] = biological target: Casein kinase II subunit alpha (Homo sapiens) (UniProt P68400); conditions: Compound concentration 100.0 nM
[14] = biological target: Phosphatidylinositol 4,5-bisphosphate 3-kinase catalytic subunit alpha isoform (Homo sapiens) (UniProt P42336); conditions: Compound concentration 100.0 nM
[15] = biological target: Myotonin-protein kinase (Homo sapiens) (UniProt Q09013); conditions: Compound concentration 100.0 nM
[16] = biological target: Ephrin type-A receptor 8 (Homo sapiens) (UniProt P29322); conditions: Compound concentration 100.0 nM
[17] = biological target: Dual specificity protein kinase CLK1 (Homo sapiens) (UniProt P49759); conditions: Compound concentration 100.0 nM
[18] = tested on: Receptor-type tyrosine-protein kinase FLT3 (Homo sapiens), P36888 [D835V]; conditions: Compound concentration 100.0 nM
[19] = tested on: Hepatocyte growth factor receptor (Homo sapiens), P08581 [M1250T]; conditions: Compound concentration 100.0 nM
[20] = biological target: NT-3 growth factor receptor (Homo sapiens) (UniProt Q16288); conditions: Compound concentration 100.0 nM
[21] = biological target: Platelet-derived growth factor receptor beta (Homo sapiens) (UniProt P09619); conditions: Compound concentration 100.0 nM
[22] = tested on: Serine/threonine-protein kinase B-raf (Homo sapiens), P15056 [V600E]; conditions: Compound concentration 100.0 nM
[23] = biological target: Mitogen-activated protein kinase 15 (Homo sapiens) (UniProt Q8TD08); conditions: Compound concentration 100.0 nM
[24] = biological target: Dual specificity protein kinase CLK2 (Homo sapiens) (UniProt P49760); conditions: Compound concentration 100.0 nM
[25] = biological target: Mitogen-activated protein kinase kinase kinase 5 (Homo sapiens) (UniProt Q99683); conditions: Compound concentration 100.0 nM
[26] = biological target: Megakaryocyte-associated tyrosine-protein kinase (Homo sapiens) (UniProt P42679); conditions: Compound concentration 100.0 nM
[27] = biological target: Serine/threonine-protein kinase LATS1 (Homo sapiens) (UniProt O95835); conditions: Compound concentration 100.0 nM
[28] = biological target: Calcium/calmodulin-dependent protein kinase type 1G (Homo sapiens) (UniProt Q96NX5); conditions: Compound concentration 100.0 nM
[29] = biological target: Glycogen synthase kinase-3 alpha (Homo sapiens) (UniProt P49840); conditions: Compound concentration 100.0 nM
[30] = biological target: Serine/threonine-protein kinase WNK4 (Homo sapiens) (UniProt Q96J92); conditions: Compound concentration 100.0 nM

Chain of Mitogen-activated protein kinase kinase kinase 5 (Homo sapiens) (Q99683 whole entry): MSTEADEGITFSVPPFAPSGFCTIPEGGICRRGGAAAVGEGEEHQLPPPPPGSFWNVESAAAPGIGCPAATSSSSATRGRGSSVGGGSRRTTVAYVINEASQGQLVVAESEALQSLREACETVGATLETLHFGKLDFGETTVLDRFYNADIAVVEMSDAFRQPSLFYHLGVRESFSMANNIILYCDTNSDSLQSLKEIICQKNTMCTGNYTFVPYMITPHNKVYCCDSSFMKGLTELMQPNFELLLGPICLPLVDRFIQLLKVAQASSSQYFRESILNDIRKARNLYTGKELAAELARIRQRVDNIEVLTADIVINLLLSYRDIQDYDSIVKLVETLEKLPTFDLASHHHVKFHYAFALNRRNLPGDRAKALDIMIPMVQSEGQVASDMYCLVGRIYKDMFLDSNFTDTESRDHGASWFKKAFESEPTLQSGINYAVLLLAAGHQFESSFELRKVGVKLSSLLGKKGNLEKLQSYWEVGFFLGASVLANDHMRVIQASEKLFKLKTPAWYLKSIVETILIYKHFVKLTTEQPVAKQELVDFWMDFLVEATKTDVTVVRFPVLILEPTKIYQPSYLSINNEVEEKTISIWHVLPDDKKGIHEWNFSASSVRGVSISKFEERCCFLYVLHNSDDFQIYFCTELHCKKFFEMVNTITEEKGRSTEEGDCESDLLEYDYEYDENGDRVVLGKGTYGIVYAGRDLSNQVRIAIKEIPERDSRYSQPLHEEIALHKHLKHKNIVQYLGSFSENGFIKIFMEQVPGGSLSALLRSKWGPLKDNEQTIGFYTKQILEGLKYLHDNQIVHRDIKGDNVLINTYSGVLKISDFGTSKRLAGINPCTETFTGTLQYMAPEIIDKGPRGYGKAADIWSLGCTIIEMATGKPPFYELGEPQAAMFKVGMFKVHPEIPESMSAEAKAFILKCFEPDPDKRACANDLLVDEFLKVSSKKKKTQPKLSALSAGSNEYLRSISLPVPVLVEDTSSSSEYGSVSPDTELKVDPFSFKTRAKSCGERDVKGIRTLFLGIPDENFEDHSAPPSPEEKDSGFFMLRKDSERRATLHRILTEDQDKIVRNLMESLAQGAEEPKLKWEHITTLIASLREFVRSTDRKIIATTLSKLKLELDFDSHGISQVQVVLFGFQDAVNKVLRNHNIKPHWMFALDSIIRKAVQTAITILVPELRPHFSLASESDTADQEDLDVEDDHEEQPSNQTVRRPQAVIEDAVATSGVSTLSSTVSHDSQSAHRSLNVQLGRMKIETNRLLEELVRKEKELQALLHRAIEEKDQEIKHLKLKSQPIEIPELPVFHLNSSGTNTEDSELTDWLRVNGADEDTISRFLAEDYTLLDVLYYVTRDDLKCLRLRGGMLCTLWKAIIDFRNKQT
Chain of Mitogen-activated protein kinase 10 (Homo sapiens) (P53779 whole entry): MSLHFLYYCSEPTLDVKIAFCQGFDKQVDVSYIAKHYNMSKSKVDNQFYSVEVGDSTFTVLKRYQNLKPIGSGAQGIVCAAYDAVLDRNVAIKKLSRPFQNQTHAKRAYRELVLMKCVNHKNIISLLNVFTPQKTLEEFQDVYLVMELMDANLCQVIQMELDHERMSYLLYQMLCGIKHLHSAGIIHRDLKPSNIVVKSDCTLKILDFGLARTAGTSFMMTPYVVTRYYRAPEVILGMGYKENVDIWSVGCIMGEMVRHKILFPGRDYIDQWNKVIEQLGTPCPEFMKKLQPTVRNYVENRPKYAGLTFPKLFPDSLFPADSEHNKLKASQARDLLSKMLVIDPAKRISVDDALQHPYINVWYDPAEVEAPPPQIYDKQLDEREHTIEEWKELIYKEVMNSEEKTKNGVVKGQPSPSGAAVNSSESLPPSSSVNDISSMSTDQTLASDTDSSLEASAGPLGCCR
Chain of Atypical kinase COQ8A, mitochondrial (Homo sapiens) (Q8NI60 163-647 limits assumed): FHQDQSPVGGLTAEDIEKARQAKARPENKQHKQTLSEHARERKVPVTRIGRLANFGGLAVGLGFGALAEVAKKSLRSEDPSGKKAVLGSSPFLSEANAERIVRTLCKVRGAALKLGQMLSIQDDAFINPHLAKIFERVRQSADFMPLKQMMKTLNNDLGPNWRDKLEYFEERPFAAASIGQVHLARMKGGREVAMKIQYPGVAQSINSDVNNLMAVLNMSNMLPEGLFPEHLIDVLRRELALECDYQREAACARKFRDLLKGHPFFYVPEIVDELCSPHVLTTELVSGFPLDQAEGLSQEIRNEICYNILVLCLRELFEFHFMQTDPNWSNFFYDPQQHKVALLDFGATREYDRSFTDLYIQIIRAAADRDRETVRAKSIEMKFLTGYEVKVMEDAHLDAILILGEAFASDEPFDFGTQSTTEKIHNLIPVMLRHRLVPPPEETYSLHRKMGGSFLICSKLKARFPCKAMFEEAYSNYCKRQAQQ
Chain of Phosphatidylinositol 4,5-bisphosphate 3-kinase catalytic subunit alpha isoform (Homo sapiens) (P42336 whole entry, canonical isoform): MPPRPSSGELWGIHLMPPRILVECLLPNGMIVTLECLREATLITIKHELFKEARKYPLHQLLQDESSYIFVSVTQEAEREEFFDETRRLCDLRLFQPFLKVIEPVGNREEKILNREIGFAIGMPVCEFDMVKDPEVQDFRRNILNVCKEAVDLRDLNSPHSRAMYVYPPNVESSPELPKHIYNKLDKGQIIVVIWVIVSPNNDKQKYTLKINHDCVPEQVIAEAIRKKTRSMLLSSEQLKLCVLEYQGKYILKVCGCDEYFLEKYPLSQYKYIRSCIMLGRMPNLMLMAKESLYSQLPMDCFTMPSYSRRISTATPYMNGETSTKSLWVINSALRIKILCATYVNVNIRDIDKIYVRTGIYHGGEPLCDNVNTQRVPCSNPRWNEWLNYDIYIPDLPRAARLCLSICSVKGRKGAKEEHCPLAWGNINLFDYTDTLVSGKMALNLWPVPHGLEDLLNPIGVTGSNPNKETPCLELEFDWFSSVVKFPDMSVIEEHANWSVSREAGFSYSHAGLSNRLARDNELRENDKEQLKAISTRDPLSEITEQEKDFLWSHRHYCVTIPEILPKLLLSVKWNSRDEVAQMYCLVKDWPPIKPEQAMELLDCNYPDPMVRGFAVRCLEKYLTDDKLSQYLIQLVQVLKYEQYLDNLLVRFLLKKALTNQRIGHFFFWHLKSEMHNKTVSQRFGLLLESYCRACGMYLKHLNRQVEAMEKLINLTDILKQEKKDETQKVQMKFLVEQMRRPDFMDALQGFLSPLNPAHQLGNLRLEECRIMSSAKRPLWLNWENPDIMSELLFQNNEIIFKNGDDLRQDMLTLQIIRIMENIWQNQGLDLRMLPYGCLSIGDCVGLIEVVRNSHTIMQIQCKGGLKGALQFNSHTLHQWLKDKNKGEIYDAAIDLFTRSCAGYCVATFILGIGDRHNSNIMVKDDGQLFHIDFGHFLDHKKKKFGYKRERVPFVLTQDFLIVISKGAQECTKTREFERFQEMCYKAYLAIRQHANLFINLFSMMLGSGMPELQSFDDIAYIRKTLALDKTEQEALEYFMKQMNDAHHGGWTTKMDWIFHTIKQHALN
Chain of Mitogen-activated protein kinase 15 (Homo sapiens) (Q8TD08 whole entry): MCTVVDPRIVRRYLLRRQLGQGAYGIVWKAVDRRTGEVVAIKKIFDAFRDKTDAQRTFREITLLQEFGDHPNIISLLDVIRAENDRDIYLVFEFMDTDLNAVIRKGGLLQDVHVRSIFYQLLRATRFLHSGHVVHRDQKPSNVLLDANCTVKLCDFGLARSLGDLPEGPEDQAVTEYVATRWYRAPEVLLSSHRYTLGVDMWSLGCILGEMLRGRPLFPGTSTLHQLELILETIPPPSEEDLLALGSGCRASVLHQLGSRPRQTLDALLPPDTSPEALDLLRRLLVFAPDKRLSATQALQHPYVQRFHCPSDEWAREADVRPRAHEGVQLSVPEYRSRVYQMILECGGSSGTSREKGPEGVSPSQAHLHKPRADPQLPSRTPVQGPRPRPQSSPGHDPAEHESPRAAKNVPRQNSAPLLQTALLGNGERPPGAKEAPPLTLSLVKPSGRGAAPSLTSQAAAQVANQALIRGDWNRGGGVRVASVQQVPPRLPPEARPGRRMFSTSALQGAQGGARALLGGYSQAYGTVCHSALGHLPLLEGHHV
Chain of Ephrin type-A receptor 8 (Homo sapiens) (P29322 whole entry): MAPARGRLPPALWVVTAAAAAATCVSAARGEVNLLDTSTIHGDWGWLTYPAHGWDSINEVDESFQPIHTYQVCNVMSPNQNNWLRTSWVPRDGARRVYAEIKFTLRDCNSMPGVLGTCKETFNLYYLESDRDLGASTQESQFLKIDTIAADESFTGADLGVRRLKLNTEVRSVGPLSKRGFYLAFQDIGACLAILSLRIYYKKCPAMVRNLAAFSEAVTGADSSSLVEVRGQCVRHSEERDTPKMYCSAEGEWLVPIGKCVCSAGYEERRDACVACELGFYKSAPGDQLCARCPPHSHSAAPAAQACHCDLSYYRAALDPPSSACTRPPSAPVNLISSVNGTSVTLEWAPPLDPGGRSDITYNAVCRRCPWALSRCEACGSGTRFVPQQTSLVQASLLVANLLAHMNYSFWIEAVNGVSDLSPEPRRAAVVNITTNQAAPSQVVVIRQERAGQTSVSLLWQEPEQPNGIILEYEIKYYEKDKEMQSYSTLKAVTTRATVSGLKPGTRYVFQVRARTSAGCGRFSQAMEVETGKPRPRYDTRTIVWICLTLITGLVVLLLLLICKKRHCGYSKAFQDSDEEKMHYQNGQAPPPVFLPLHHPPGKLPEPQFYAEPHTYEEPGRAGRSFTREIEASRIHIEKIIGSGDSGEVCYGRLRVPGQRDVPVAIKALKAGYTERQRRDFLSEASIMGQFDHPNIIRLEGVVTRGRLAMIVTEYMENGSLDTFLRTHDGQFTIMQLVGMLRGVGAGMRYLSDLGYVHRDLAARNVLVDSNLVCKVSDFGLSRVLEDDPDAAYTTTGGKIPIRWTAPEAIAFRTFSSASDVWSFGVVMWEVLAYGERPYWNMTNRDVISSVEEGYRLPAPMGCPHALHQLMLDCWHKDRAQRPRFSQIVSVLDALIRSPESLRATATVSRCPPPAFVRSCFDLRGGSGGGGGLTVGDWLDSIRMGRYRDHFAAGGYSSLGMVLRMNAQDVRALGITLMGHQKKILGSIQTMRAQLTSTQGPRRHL

SMILES | residual activity [1] [%] | residual activity [2] [%] | residual activity [3] [%] | residual activity [4] [%] | residual activity [5] [%] | residual activity [6] [%] | inhibition [7] [%] | residual activity [8] [%] | residual activity [9] [%] | residual activity [10] [%] | residual activity [11] [%] | residual activity [12] [%] | residual activity [13] [%] | residual activity [14] [%] | residual activity [15] [%] | residual activity [16] [%] | residual activity [17] [%] | residual activity [18] [%] | residual activity [19] [%] | residual activity [20] [%] | also measured
CCOC(=O)c1cc2cc(-c3cc(C(=O)NCc4ccc(C(=O)O)cc4)nn3C)ccc2[nH]1 [BI 4394] | 97 | 90 | 100 | 81 | 92 | 89 | -9.42 | 100 | 84 | 100 | 82 | 97 | 81 | 92 | 87 | 100 | 100 | 90 | 87 | 94 | residual activity [21]: 86%; residual activity [22]: 100%; residual activity [23]: 100%; residual activity [24]: 96%; residual activity [25]: 98%; residual activity [26]: 96%; residual activity [27]: 97%; residual activity [28]: 100%; residual activity [29]: 100%; residual activity [30]: 97%
Cn1nc(C(=O)NCc2ccc(C(=O)O)cc2)cc1-c1ccc2[nH]ccc2c1 [BI 4395] | 82 | 98 | 73 | 84 | 100 | 83 | 0.8 | 76 | 100 | 100 | 65 | 97 | 68 | 41 | 76 | 92 | 80 | 98 | 91 | 89 | residual activity [21]: 96%; residual activity [22]: 89%; residual activity [23]: 98%; residual activity [24]: 100%; residual activity [25]: 86%; residual activity [26]: 86%; residual activity [27]: 100%; residual activity [28]: 89%; residual activity [29]: 61%; residual activity [30]: 100%
